pIC50, pKi: −log10 of the molar value.
Legend:
[1] = molecular target: T1, Alpha-2C adrenergic receptor (Homo sapiens, UniProt P18825); assay: DRUGMATRIX: Adrenergic Alpha-2C radioligand binding (ligand: [3H] MK-912); assay type: cell membranes, Sf9, Membrane; conditions: for IC50: sf9
T1 sequence (P18825 whole entry): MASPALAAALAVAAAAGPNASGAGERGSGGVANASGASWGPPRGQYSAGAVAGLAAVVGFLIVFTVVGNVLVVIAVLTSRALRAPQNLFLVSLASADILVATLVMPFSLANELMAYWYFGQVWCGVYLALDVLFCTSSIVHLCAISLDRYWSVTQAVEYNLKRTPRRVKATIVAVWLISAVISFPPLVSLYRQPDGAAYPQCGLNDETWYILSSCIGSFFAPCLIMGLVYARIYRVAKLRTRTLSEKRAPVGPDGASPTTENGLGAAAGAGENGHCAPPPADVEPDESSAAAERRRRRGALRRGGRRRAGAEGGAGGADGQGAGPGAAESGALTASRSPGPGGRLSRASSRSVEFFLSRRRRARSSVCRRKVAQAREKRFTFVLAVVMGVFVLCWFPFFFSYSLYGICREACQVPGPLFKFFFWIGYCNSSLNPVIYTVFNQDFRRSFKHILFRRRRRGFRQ

[2] = molecular target: Mitogen-activated protein kinase 14 (Homo sapiens, UniProt Q16539); parameters: species or system Escherichia coli;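 note: inhibition of p38alpha enzyme activity in a biochemical kinase assay, with myelin basic protein serving as substrate; in other assays of this panel Not Active means under 50% inhibition at 10 µM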
[3] = DRUGMATRIX: GABAA, Flunitrazepam, Central radioligand binding (ligand: [3H] Flunitrazepam); assay type: cell membranes, Rattus norvegicus, Wistar, Brain, Membrane; conditions: Not Active = under 50% inhibition at 10 µM
[4] = molecular target: C-C chemokine receptor type 5 (Homo sapiens, UniProt P51681); assay type: cell membranes, HEK293, Membrane; conditions: hek293; note: in other assays of this panel Not Active means under 50% inhibition at 10 µM
[5] = molecular target: T2, Neuropeptide Y receptor type 2 (Homo sapiens, UniProt P49146); assay type: cell membranes, Membrane; conditions: kan-ts; note: in other assays of this panel Not Active means under 50% inhibition at 10 µM
T2 sequence (P49146 whole entry): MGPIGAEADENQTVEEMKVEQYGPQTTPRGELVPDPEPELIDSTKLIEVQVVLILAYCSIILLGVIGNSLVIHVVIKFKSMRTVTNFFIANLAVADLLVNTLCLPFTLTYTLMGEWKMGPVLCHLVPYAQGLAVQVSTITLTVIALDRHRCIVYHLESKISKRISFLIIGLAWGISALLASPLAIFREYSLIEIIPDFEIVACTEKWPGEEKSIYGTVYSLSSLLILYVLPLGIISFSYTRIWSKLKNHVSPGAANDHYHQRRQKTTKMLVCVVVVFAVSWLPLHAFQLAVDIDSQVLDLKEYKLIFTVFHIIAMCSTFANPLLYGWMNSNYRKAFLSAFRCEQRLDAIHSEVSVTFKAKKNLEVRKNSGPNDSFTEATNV

[6] = molecular target: T3, Alpha-1B adrenergic receptor (Rattus norvegicus, UniProt P15823); assay: DRUGMATRIX: Alpha-1B adrenergic receptor radioligand binding (ligand: prazosin); assay type: cell membranes, Wistar, Liver, Membrane; conditions: Not Active = under 50% inhibition at 10 µM
T3 sequence (P15823 whole entry): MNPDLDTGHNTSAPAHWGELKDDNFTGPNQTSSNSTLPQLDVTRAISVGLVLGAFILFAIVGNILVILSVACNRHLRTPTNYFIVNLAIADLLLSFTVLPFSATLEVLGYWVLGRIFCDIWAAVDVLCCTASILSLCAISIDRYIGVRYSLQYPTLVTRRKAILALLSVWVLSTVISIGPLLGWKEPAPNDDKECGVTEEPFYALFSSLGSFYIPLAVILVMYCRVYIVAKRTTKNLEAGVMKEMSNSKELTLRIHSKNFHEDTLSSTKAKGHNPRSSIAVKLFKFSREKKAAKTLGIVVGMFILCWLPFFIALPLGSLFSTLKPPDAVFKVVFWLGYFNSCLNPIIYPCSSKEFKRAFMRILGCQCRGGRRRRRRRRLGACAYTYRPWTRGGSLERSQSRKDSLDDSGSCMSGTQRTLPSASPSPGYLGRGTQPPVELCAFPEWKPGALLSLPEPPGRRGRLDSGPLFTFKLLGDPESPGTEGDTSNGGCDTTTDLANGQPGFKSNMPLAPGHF

Chain of Mitogen-activated protein kinase 14 (Q16539 whole entry): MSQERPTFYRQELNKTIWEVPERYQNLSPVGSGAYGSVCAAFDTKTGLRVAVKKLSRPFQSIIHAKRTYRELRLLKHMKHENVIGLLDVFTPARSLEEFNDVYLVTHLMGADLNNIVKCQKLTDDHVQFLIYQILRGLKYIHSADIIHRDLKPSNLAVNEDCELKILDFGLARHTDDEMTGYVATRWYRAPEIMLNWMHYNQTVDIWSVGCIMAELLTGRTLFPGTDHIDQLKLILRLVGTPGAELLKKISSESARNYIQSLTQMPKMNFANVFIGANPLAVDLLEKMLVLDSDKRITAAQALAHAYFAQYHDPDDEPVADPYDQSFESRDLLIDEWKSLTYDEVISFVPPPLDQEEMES
Chain of C-C chemokine receptor type 5 (P51681 whole entry): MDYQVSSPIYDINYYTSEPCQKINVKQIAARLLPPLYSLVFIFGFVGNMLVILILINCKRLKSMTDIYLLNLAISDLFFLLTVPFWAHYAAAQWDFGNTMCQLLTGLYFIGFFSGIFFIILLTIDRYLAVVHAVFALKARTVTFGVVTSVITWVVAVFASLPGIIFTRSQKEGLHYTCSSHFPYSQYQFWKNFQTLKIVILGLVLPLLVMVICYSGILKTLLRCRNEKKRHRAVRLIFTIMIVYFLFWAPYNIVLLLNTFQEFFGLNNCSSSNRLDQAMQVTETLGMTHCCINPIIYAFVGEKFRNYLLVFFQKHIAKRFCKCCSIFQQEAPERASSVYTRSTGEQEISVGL

Structure (SMILES)	IC50 [1]	IC50 [2]	IC50 [3]	Ki [3]	IC50 [4]	IC50 [5]	IC50 [6]	pIC50 ([1]; read-out: IC50)	pKi ([1]; read-out: Ki)	pIC50 ([3]; read-out: IC50)	pKi ([3]; read-out: Ki)
COc1cc(NC(C)CCCN)c2ncccc2c1 (centres undefined) [PRIMAQUINE]	Not Active	Not Active	Not Active	Not Active	Not Active	Not Active	Not Active	–	–	–	–
COc1ccc(Cl)cc1C(=O)NCCc1ccc(S(=O)(=O)NC(=O)NC2CCCCC2)cc1 [GLYBURIDE]	Not Active	Not Active	Not Active	Not Active	Not Active	Not Active	Not Active	–	–	–	–
CCO [ALCOHOL]	Not Active	Not Active	Not Active	Not Active	Not Active	Not Active	Not Active	–	–	–	–
CC(C)(c1ccc(O)cc1)c1ccc(O)cc1 [BISPHENOL A]	Not Active	Not Active	Not Active	Not Active	Not Active	Not Active	Not Active	–	–	–	–
CC12CCC(CC1=O)C2(C)C (centres undefined) [CAMPHOR]	Not Active	Not Active	Not Active	Not Active	Not Active	Not Active	Not Active	–	–	–	–
O=C(O)c1ccccc1 [BENZOIC ACID]	Not Active	Not Active	Not Active	Not Active	Not Active	Not Active	Not Active	–	–	–	–
Oc1ncnc2[nH]ncc12 [ALLOPURINOL]	Not Active	Not Active	Not Active	Not Active	Not Active	Not Active	Not Active	–	–	–	–
NC(=O)CN1CCCC1=O	Not Active	Not Active	Not Active	Not Active	Not Active	Not Active	Not Active	–	–	–	–
C=CCO [ALLYL ALCOHOL]	Not Active	Not Active	Not Active	Not Active	Not Active	Not Active	Not Active	–	–	–	–
CCN1CCN(C(=O)N[C@@H](C(=O)N[C@@H]2C(=O)N3[C@@H]2SC(C)(C)[C@@H]3C(=O)O)c2ccccc2)C(=O)C1=O [PIPERACILLIN]	Not Active	Not Active	Not Active	Not Active	Not Active	Not Active	Not Active	–	–	–	–
CCCCCCNC(=O)n1cc(F)c(=O)[nH]c1=O [CARMOFUR]	Not Active	Not Active	Not Active	Not Active	Not Active	Not Active	Not Active	–	–	–	–
CCN(CCO)CCCC(C)Nc1ccnc2cc(Cl)ccc12 (centres undefined) [HYDROXYCHLOROQUINE]	Not Active	Not Active	Not Active	Not Active	Not Active	Not Active	Not Active	–	–	–	–
Clc1cc(Cl)c(OCC#CI)cc1Cl [HALOPROGIN]	–	Not Active	Not Active	Not Active	Not Active	Not Active	Not Active	5.39	6.23	–	–
O=c1[nH]cnc2c1ncn2[C@H]1CC[C@@H](CO)O1 [DIDANOSINE]	Not Active	Not Active	Not Active	Not Active	Not Active	Not Active	Not Active	–	–	–	–
Cl.NC[C@H]1CC[C@H](C(=O)Oc2ccc(CCC(=O)O)cc2)CC1 [CETRAXATE HYDROCHLORIDE]	Not Active	Not Active	Not Active	Not Active	Not Active	Not Active	Not Active	–	–	–	–
COc1cc([C@@H]2c3cc4c(cc3[C@H](O)[C@H]3COC(=O)[C@H]23)OCO4)cc(OC)c1OC [PODOFILOX]	Not Active	Not Active	Not Active	Not Active	Not Active	Not Active	Not Active	–	–	–	–
COc1cc(/C=C/C(=O)O)ccc1O [FERULATE]	Not Active	Not Active	Not Active	Not Active	Not Active	Not Active	Not Active	–	–	–	–
O=C(O)CCc1nc(-c2ccccc2)c(-c2ccccc2)o1 [OXAPROZIN]	Not Active	Not Active	Not Active	Not Active	Not Active	Not Active	Not Active	–	–	–	–
c1ccc(Cn2ccnc2)cc1	Not Active	Not Active	Not Active	Not Active	Not Active	Not Active	Not Active	–	–	–	–
C[C@H]1C[C@H]2[C@@H]3CCC4=CC(=O)C=C[C@]4(C)[C@@]3(F)[C@@H](O)C[C@]2(C)[C@@]1(O)C(=O)CO [BETAMETHASONE]	Not Active	Not Active	Not Active	Not Active	Not Active	Not Active	Not Active	–	–	–	–
Nc1nc(N)c2nc(CNc3ccc(C(=O)N[C@@H](CCC(=O)O)C(=O)O)cc3)cnc2n1 [AMINOPTERIN]	Not Active	Not Active	Not Active	Not Active	Not Active	Not Active	Not Active	–	–	–	–
CC(=O)Nc1ccc2c(c1)Cc1ccccc1-2 [2-ACETYLAMINOFLUORENE]	Not Active	Not Active	Not Active	Not Active	Not Active	Not Active	Not Active	–	–	–	–
C=C(Cl)Cl [1,1-DICHLOROETHENE]	Not Active	Not Active	Not Active	Not Active	Not Active	Not Active	Not Active	–	–	–	–
C#C[C@]1(O)CC[C@H]2[C@@H]3CCC4=CC(=O)CC[C@@H]4[C@H]3CC[C@@]21C [NORETHINDRONE]	Not Active	Not Active	–	–	Not Active	Not Active	Not Active	–	–	4.87	4.96
CC[C@H]1OC(=O)[C@H](C)[C@@H](O[C@H]2C[C@@](C)(OC)[C@@H](O)[C@H](C)O2)[C@H](C)[C@@H](O[C@@H]2O[C@H](C)C[C@H](N(C)C)[C@H]2O)[C@](C)(O)C[C@@H](C)C(=O)[C@H](C)[C@@H](O)[C@]1(C)O [ERYTHROMYCIN]	Not Active	Not Active	Not Active	Not Active	Not Active	Not Active	Not Active	–	–	–	–
c1ccc2c(c1)Nc1ccccc1S2 [PHENOTHIAZINE]	Not Active	Not Active	Not Active	Not Active	Not Active	Not Active	Not Active	–	–	–	–
C[C@H](C(=O)O)c1ccc2oc(-c3ccc(F)cc3)nc2c1 [FLUNOXAPROFEN]	Not Active	Not Active	Not Active	Not Active	Not Active	Not Active	Not Active	–	–	–	–
CC1(COc2ccc(CC3SC(=O)NC3=O)cc2)CCCCC1 (centres undefined) [CIGLITAZONE]	Not Active	Not Active	Not Active	Not Active	Not Active	Not Active	Not Active	–	–	–	–
C=CCN1CC[C@]23c4c5ccc(O)c4O[C@H]2/C(=N/N=C2\CC[C@@]4(O)[C@H]6Cc7ccc(O)c8c7[C@@]4(CCN6CC=C)[C@H]2O8)CC[C@@]3(O)[C@H]1C5 [NALOXONAZINE]	Not Active	Not Active	Not Active	Not Active	Not Active	Not Active	Not Active	–	–	–	–

Source: ChEMBL document CHEMBL1909046, “DrugMatrix in vitro pharmacology data”
